Laboratory results as given in patent US12539292B2, “BRM targeting compounds and associated methods of use” (Arvinas Operations, Inc., priority 2018, dated 2026).

Target: T1, BRM (Homo sapiens, UniProt P51531)
T1 construct: In-Cell Western Screen of BRM Degradation in SW1573 Cells; endogenous in cells; host or cells: SW1573
Test: In-cell Western screen of BRM degradation in SW1573 cells (Dmax and DC50)
Assay type: cell-based
Settings: BRM degradation, SW1573 cells, Table 2D; for Dmax: read-out: **Dmax (%) (% degraded); for DC50: read-out: *DC50
How it was run: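 After adhering overnight, cells received compound for 18-20 hours. They were then washed in cold DPBS, fixed with 4% PFA for 20 min and permeabilized for 30 min. Blocking and fluorescent secondary staining followed before imaging.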

T1 sequence (P51531 whole entry): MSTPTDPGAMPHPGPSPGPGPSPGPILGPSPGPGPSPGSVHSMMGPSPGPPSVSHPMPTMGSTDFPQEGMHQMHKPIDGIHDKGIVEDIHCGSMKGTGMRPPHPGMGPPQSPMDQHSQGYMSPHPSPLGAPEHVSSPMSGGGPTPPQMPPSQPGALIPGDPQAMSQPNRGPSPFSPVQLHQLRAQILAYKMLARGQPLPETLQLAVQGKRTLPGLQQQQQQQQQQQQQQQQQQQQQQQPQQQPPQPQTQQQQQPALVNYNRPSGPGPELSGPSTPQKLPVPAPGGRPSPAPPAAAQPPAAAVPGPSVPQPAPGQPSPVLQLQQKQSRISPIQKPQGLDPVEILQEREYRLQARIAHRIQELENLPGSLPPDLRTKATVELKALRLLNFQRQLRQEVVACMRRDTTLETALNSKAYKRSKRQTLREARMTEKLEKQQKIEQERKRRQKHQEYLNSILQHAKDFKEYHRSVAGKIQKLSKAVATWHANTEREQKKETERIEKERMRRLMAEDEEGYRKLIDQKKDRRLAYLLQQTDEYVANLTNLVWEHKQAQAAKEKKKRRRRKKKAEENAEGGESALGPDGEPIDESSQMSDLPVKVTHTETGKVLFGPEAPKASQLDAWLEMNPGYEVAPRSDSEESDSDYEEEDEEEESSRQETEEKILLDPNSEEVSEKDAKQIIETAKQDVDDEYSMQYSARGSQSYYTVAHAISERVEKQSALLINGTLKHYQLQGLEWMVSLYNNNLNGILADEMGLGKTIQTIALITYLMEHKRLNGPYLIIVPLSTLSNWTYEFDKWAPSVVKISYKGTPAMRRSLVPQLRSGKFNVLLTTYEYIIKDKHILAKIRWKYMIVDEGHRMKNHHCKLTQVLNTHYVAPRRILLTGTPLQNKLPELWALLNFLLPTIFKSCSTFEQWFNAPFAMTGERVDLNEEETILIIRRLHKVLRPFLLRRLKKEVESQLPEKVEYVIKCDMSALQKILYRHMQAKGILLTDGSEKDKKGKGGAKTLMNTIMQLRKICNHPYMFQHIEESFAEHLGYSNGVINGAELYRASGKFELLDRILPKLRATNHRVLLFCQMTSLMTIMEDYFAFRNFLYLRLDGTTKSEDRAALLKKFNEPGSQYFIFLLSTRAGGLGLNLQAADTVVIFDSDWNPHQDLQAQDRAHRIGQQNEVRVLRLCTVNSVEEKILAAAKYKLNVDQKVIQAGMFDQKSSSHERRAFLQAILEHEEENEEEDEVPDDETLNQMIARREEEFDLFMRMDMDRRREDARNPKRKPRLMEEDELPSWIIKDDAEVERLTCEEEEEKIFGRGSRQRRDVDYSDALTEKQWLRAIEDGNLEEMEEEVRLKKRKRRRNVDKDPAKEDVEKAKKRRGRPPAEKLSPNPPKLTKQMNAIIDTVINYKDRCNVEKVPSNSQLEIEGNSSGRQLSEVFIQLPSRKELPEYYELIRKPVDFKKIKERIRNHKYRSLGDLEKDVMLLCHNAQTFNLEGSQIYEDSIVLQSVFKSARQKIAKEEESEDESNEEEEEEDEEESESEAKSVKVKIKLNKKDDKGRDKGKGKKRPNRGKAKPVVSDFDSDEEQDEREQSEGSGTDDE

SMILES | Dmax [%] | DC50 [nM]
Cc1ncsc1-c1ccc([C@H](CCCC(N)=O)NC(=O)[C@@H]2C[C@@H](O)CN2C(=O)[C@@H](c2cc(OCCN3CCC(O[C@H]4C[C@H](Oc5cc(N6C7CCC6CN(c6cc(-c8ccccc8O)nnc6N)C7)ccn5)C4)CC3)no2)C(C)C)cc1 [compound 556, (2S,4R)-N-((S)-5-amino-1-(4-(4-methylthiazol-5-yl)phenyl)-5-oxopentyl)-1-((2R)-2-(3-(2-(4-((1r,3R)-3-((4-(3-(3-amino-6-(2-hydroxyphenyl)pyridazin-4-yl)-3,8-diazabicyclo[3.2.1]octan-8-yl)pyridin-2-yl)oxy)cyclobutoxy)piperidin-1-yl)ethoxy)isoxazol-5-yl)-3-methylbutanoyl)-4-hydroxypyrrolidine-2-carboxamide] | > 75 | < 2.5
Cc1cc([C@@H](C(=O)N2C[C@H](O)C[C@H]2C(=O)N[C@@H](C)c2ccc(-c3scnc3C)cc2)[C@H](C)COCCCCn2cc(-c3cc(-c4ccccc4O)nnc3N)cn2)on1 [compound 557, (2S,4R)-1-((2S,3S)-4-(4-(4-(3-amino-6-(2-hydroxyphenyl)pyridazin-4-yl)-1H-pyrazol-1-yl)butoxy)-3-methyl-2-(3-methylisoxazol-5-yl)butanoyl)-4-hydroxy-N-((S)-1-(4-(4-methylthiazol-5-yl)phenyl)ethyl) pyrrolidine-2-carboxamide] |  | > 30
Cc1cc([C@H](C(=O)N2C[C@H](O)C[C@H]2C(=O)N[C@@H](C)c2ccc(-c3scnc3C)cc2)[C@H](C)COCCCCn2cc(-c3cc(-c4ccccc4O)nnc3N)cn2)on1 [compound 558, (2S,4R)-1-((2R,3S)-4-(4-(4-(3-amino-6-(2-hydroxyphenyl)pyridazin-4-yl)-1H-pyrazol-1-yl)butoxy)-3-methyl-2-(3-methylisoxazol-5-yl)butanoyl)-4-hydroxy-N-((S)-1-(4-(4-methylthiazol-5-yl)phenyl)ethyl) pyrrolidine-2-carboxamide] |  | > 30
Cc1cc([C@@H](C(=O)N2C[C@H](O)C[C@H]2C(=O)N[C@@H](C)c2ccc(-c3scnc3C)cc2)[C@H](C)COCCCn2cc(-c3cc(-c4ccccc4O)nnc3N)cn2)on1 [compound 559, (2S,4R)-1-((2S,3S)-4-(3-(4-(3-amino-6-(2-hydroxyphenyl)pyridazin-4-yl)-1H-pyrazol-1-yl)propoxy)-3-methyl-2-(3-methylisoxazol-5-yl)butanoyl)-4-hydroxy-N-((S)-1-(4-(4-methylthiazol-5-yl)phenyl)ethyl)pyrrolidine-2-carboxamide] |  | > 30
Cc1cc([C@H](C(=O)N2C[C@H](O)C[C@H]2C(=O)N[C@@H](C)c2ccc(-c3scnc3C)cc2)[C@H](C)COCCCn2cc(-c3cc(-c4ccccc4O)nnc3N)cn2)on1 [compound 560, (2S,4R)-1-((2R,3S)-4-(3-(4-(3-amino-6-(2-hydroxyphenyl)pyridazin-4-yl)-1H-pyrazol-1-yl)propoxy)-3-methyl-2-(3-methylisoxazol-5-yl)butanoyl)-4-hydroxy-N-((S)-1-(4-(4-methylthiazol-5-yl)phenyl)ethyl)pyrrolidine-2-carboxamide] |  | > 30
COc1nc(-c2scnc2C)c(F)cc1[C@H](C)NC(=O)[C@@H]1C[C@@H](O)CN1C(=O)[C@H](c1cc(OCCN2CCC(O[C@H]3C[C@H](Oc4cc(N5C6CCC5CN(c5cc(-c7ccccc7O)nnc5N)C6)ccn4)C3)CC2)no1)C(C)C [compound 561, (2S,4R)-1-((2S)-2-(3-(2-(4-((1r,3S)-3-((4-(3-(3-amino-6-(2-hydroxyphenyl)pyridazin-4-yl)-3,8-diazabicyclo[3.2.1]octan-8-yl)pyridin-2-yl)oxy)cyclobutoxy)piperidin-1-yl)ethoxy)isoxazol-5-yl)-3-methylbutanoyl)-N-((S)-1-(5-fluoro-2-methoxy-6-(4-methylthiazol-5-yl)pyridin-3-yl)ethyl)-4-hydroxypyrrolidine-2-carboxamide] |  | > 30
COc1nc(-c2scnc2C)c(F)cc1[C@H](C)NC(=O)[C@@H]1C[C@@H](O)CN1C(=O)[C@@H](c1cc(OCCN2CCC(O[C@H]3C[C@H](Oc4cc(N5C6CCC5CN(c5cc(-c7ccccc7O)nnc5N)C6)ccn4)C3)CC2)no1)C(C)C [compound 562, (2S,4R)-1-((2R)-2-(3-(2-(4-((1r,3R)-3-((4-(3-(3-amino-6-(2-hydroxyphenyl)pyridazin-4-yl)-3,8-diazabicyclo[3.2.1]octan-8-yl)pyridin-2-yl)oxy)cyclobutoxy)piperidin-1-yl)ethoxy)isoxazol-5-yl)-3-methylbutanoyl)-N-((S)-1-(5-fluoro-2-methoxy-6-(4-methylthiazol-5-yl)pyridin-3-yl)ethyl)-4-hydroxypyrrolidine-2-carboxamide] | > 75 | < 2.5
COc1nc(-c2scnc2C)c(F)cc1[C@@H](C)NC(=O)[C@@H]1C[C@@H](O)CN1C(=O)[C@H](c1cc(OCCN2CCC(O[C@H]3C[C@H](Oc4cc(N5C6CCC5CN(c5cc(-c7ccccc7O)nnc5N)C6)ccn4)C3)CC2)no1)C(C)C [compound 563, (2S,4R)-1-((2S)-2-(3-(2-(4-((1r,3S)-3-((4-(3-(3-amino-6-(2-hydroxyphenyl)pyridazin-4-yl)-3,8-diazabicyclo[3.2.1]octan-8-yl)pyridin-2-yl)oxy)cyclobutoxy)piperidin-1-yl)ethoxy)isoxazol-5-yl)-3-methylbutanoyl)-N-((R)-1-(5-fluoro-2-methoxy-6-(4-methylthiazol-5-yl)pyridin-3-yl)ethyl)-4-hydroxypyrrolidine-2-carboxamide] |  | > 30
COc1nc(-c2scnc2C)c(F)cc1[C@@H](C)NC(=O)[C@@H]1C[C@@H](O)CN1C(=O)[C@@H](c1cc(OCCN2CCC(O[C@H]3C[C@H](Oc4cc(N5C6CCC5CN(c5cc(-c7ccccc7O)nnc5N)C6)ccn4)C3)CC2)no1)C(C)C [compound 564, (2S,4R)-1-((2R)-2-(3-(2-(4-((1r,3R)-3-((4-(3-(3-amino-6-(2-hydroxyphenyl)pyridazin-4-yl)-3,8-diazabicyclo[3.2.1]octan-8-yl)pyridin-2-yl)oxy)cyclobutoxy)piperidin-1-yl)ethoxy)isoxazol-5-yl)-3-methylbutanoyl)-N-((R)-1-(5-fluoro-2-methoxy-6-(4-methylthiazol-5-yl)pyridin-3-yl)ethyl)-4-hydroxypyrrolidine-2-carboxamide] |  | > 30
CNC(=O)CCC[C@H](NC(=O)[C@@H]1C[C@@H](O)CN1C(=O)[C@H](c1cc(OCCN2CCC(O[C@H]3C[C@H](Oc4cc(N5C6CCC5CN(c5cc(-c7ccccc7O)nnc5N)C6)ccn4)C3)CC2)no1)C(C)C)c1ccc(-c2scnc2C)cc1 [compound 569, (2S,4R)-1-((2S)-2-(3-(2-(4-((1r,3S)-3-((4-(3-(3-amino-6-(2-hydroxyphenyl)pyridazin-4-yl)-3,8-diazabicyclo[3.2.1]octan-8-yl)pyridin-2-yl)oxy)cyclobutoxy)piperidin-1-yl)ethoxy)isoxazol-5-yl)-3-methylbutanoyl)-4-hydroxy-N-((S)-5-(methylamino)-1-(4-(4-methylthiazol-5-yl)phenyl)-5-oxopentyl)pyrrolidine-2-carboxamide] |  | > 30
CNC(=O)CCC[C@H](NC(=O)[C@@H]1C[C@@H](O)CN1C(=O)[C@@H](c1cc(OCCN2CCC(O[C@H]3C[C@H](Oc4cc(N5C6CCC5CN(c5cc(-c7ccccc7O)nnc5N)C6)ccn4)C3)CC2)no1)C(C)C)c1ccc(-c2scnc2C)cc1 [compound 570, (2S,4R)-1-((2R)-2-(3-(2-(4-((1r,3R)-3-((4-(3-(3-amino-6-(2-hydroxyphenyl)pyridazin-4-yl)-3,8-diazabicyclo[3.2.1]octan-8-yl)pyridin-2-yl)oxy)cyclobutoxy)piperidin-1-yl)ethoxy)isoxazol-5-yl)-3-methylbutanoyl)-4-hydroxy-N-((S)-5-(methylamino)-1-(4-(4-methylthiazol-5-yl)phenyl)-5-oxopentyl)pyrrolidine-2-carboxamide] | > 75 | < 2.5
Cc1ncsc1-c1ccc([C@@H](NC(=O)[C@@H]2C[C@@H](O)CN2C(=O)[C@H](c2cc(N3CCC(CN4CCC(O[C@H]5C[C@H](Oc6cc(N7C8CCC7CN(c7cc(-c9ccccc9O)nnc7N)C8)ccn6)C5)CC4)CC3)no2)C(C)C)C(F)F)cc1 [compound 571, (2S,4R)-1-((2S)-2-(3-(4-((4-((1r,3r)-3-((4-(3-(3-amino-6-(2-hydroxyphenyl)pyridazin-4-yl)-3,8-diazabicyclo[3.2.1]octan-8-yl)pyridin-2-yl)oxy)cyclobutoxy)piperidin-1-yl)methyl)piperidin-1-yl)isoxazol-5-yl)-3-methylbutanoyl)-N-((R)-2,2-difluoro-1-(4-(4-methylthiazol-5-yl)phenyl)ethyl)-4-hydroxypyrrolidine-2-carboxamide] |  | > 30
Cc1ncsc1-c1ccc([C@@H](NC(=O)[C@@H]2C[C@@H](O)CN2C(=O)[C@@H](c2cc(N3CCC(CN4CCC(O[C@H]5C[C@H](Oc6cc(N7C8CCC7CN(c7cc(-c9ccccc9O)nnc7N)C8)ccn6)C5)CC4)CC3)no2)C(C)C)C(F)F)cc1 [compound 572, (2S,4R)-1-((2R)-2-(3-(4-((4-((1r,3r)-3-((4-(3-(3-amino-6-(2-hydroxyphenyl)pyridazin-4-yl)-3,8-diazabicyclo[3.2.1]octan-8-yl)pyridin-2-yl)oxy)cyclobutoxy)piperidin-1-yl)methyl)piperidin-1-yl)isoxazol-5-yl)-3-methylbutanoyl)-N-((R)-2,2-difluoro-1-(4-(4-methylthiazol-5-yl)phenyl)ethyl)-4-hydroxypyrrolidine-2-carboxamide] | > 75 | < 2.5
